system: Phakopsora pachyrhizi containing the amino acid substitution F129L in the mitochondrial cytochrome b protein; experiment: Use Example 1: protective control of soybean rust on soybeans (PHAKPA P2); type: in vivo; conditions: inoculated 2 days after spraying, 4 ppm, % diseased leaf area
Procedure: (§1) The compound was dissolved in a mixture of acetone and/or dimethylsulfoxide and the wetting agent/emulsifier Wettol, which is based on ethoxylated alkylphenoles, in a ratio (volume) solvent-emulsifier of 99 to 1 to give a total volume of 5 ml. Subsequently, water was added to total volume of 100 ml. This stock solution was then diluted with the described solvent-emulsifier-water mixture to the final concentration given in the tables below.
Use Example 1. Protective Control of Soybean Rust on Soybeans Caused by Phakopsora pachyrhizi (PHAKPA P2)
(§2) Leaves of potted soybean seedlings were sprayed to run-off with the previously described spray solution, containing the concentration of active ingredient or their mixture as described below. The plants were allowed to air-dry. The trial plants were cultivated for 2 days in a greenhouse chamber at 23-27° C. and a relative humidity between 60 and 80%. Then the plants were inoculated with spores of Phakopsora pachyrhizi. The strain used contains the amino acid substitution F129L in the mitochondrial cytochrome b protein conferring resistance to Qo inhibitors. To ensure the success the artificial inoculation, the plants were transferred to a humid chamber with a relative humidity of about 95% and 20 to 24° C. for 24 hr. The trial plants were cultivated for up to 14 days in a greenhouse chamber at 23 to 27° C. and a relative humidity between 60 and 80%. The extent of fungal attack on the leaves was visually assessed as % diseased leaf area, the disease level of untreated controls was usually higher than 85%.

Row | SMILES | % PHAKPA (F129L) Disease level P2 at 4 ppm [%]
1 | CO/C=C(/C(=O)OC)c1cccc(Cl)c1CO/N=C(\COC)c1cccc(C)c1 [compound 128] | 4
2 | COC/C(=N\OCc1c(Cl)cccc1/C(=N\OC)C(=O)OC)c1c(F)ccc(F)c1F [compound 111] | 39
3 | COC/C(=N\OCc1c(Cl)cccc1/C(=N\OC)C(=O)OC)c1ccc(F)c(F)c1F [compound 98] | 72
4 | COC/C(=N\OCc1c(Cl)cccc1/C(=N\OC)C(=O)OC)c1cccc(OC)c1 [compound 120] | 67
5 | COC/C(=N\OCc1c(Cl)cccc1/C(=N\OC)C(=O)OC)c1ccc(Cl)c(Cl)c1 [compound 68] | 17

same assay, conditions: inoculated 2 days after spraying, 16 ppm, % diseased leaf area

Row | SMILES | % PHAKPA (F129L) Disease level P2 at 16 ppm [%]
6 | CO/C=C(/C(=O)OC)c1cccc(Cl)c1CO/N=C(\COC)c1cccc(C)c1 [compound 128] | 0
7 | COC/C(=N\OCc1c(Cl)cccc1/C(=N\OC)C(=O)OC)c1c(F)ccc(F)c1F [compound 111] | 5
8 | COC/C(=N\OCc1c(Cl)cccc1/C(=N\OC)C(=O)OC)c1ccc(F)c(F)c1F [compound 98] | 15
9 | COC/C(=N\OCc1c(Cl)cccc1/C(=N\OC)C(=O)OC)c1cccc(OC)c1 [compound 120] | 11
10 | COC/C(=N\OCc1c(Cl)cccc1/C(=N\OC)C(=O)OC)c1ccc(Cl)c(Cl)c1 [compound 68] | 2

system: Phakopsora pachyrhizi containing the amino acid substitution F129L in the mitochondrial cytochrome b protein; experiment: Use Example 2: protective control of soybean rust on soybeans (PHAKPA P6); type: in vivo; conditions: inoculated six days after spraying, 4 ppm, % diseased leaf area
Procedure: as §1
Use Example 2. Protective Control of Soybean Rust on Soybeans Caused by Phakopsora Pachyrhizi (PHAKPA P6)
as §2, with “active ingredient as described” for “active ingredient or their mixture as described”, “cultivated for six days in” for “cultivated for 2 days in”, “95% and 23 to 27°” for “95% and 20 to 24°”, “23 to 27° C. for” for “20 to 24° C. for”

Row | SMILES | % PHAKPA (F129L) Disease level P6 at 4 ppm [%]
11 | CO/C=C(/C(=O)OC)c1cccc(Cl)c1CO/N=C(\COC)c1cccc(C)c1 [compound 128] | 4
12 | COC/C(=N\OCc1c(Cl)cccc1/C(=N\OC)C(=O)OC)c1c(F)ccc(F)c1F [compound 111] | 42
13 | COC/C(=N\OCc1c(Cl)cccc1/C(=N\OC)C(=O)OC)c1ccc(F)c(F)c1F [compound 98] | 72
14 | COC/C(=N\OCc1c(Cl)cccc1/C(=N\OC)C(=O)OC)c1cccc(OC)c1 [compound 120] | 81
15 | COC/C(=N\OCc1c(Cl)cccc1/C(=N\OC)C(=O)OC)c1ccc(Cl)c(Cl)c1 [compound 68] | 45

same assay, conditions: inoculated six days after spraying, 16 ppm, % diseased leaf area

Row | SMILES | % PHAKPA (F129L) Disease level P6 at 16 ppm [%]
16 | CO/C=C(/C(=O)OC)c1cccc(Cl)c1CO/N=C(\COC)c1cccc(C)c1 [compound 128] | 1
17 | COC/C(=N\OCc1c(Cl)cccc1/C(=N\OC)C(=O)OC)c1c(F)ccc(F)c1F [compound 111] | 15
18 | COC/C(=N\OCc1c(Cl)cccc1/C(=N\OC)C(=O)OC)c1ccc(F)c(F)c1F [compound 98] | 31
19 | COC/C(=N\OCc1c(Cl)cccc1/C(=N\OC)C(=O)OC)c1cccc(OC)c1 [compound 120] | 45
20 | COC/C(=N\OCc1c(Cl)cccc1/C(=N\OC)C(=O)OC)c1ccc(Cl)c(Cl)c1 [compound 68] | 9

system: Puccinia recondita; experiment: Use Example 3: curative control of brown rust on wheat (PUCCRT K4); type: in vivo; conditions: 4 ppm, % diseased leaf area
Procedure: as §1
Use Example 3. Curative Control of Brown Rust on Wheat Caused by Puccinia recondita (PUCCRT K4)
The first two developed leaves of potted wheat seedling were dusted with spores of Puccinia recondita. To ensure the success the artificial inoculation, the plants were transferred to a humid chamber without light and a relative humidity of 95 to 99% and 20 to 24° C. for 24 h. The next 3 days the plants were cultivated in a greenhouse chamber at 20 to 24° C. and a relative humidity between 65 and 70%. Then the plants were sprayed to run-off with previously described spray solution, containing the concentration of active ingredient or their mixture as described below. The plants were allowed to air-dry. Then the trial plants were cultivated for 5 to 7 days in a greenhouse chamber at 20 to 24° C. and a relative humidity between 65 and 70%. The extent of fungal attack on the leaves was visually assessed as % diseased leaf area, the disease level of untreated controls was usually between 80 and 100%.

Row | SMILES | % PUCCRT Disease level K4 at 4 ppm [%]
21 | CCOC/C(=N\OCc1c(Cl)cccc1/C(=N\OC)C(=O)NC)c1ccccc1Cl [compound 51] | 72
22 | CCOC/C(=N\OCc1c(Cl)cccc1/C(=N\OC)C(=O)OC)c1cccc(F)c1 [compound 26] | 82
23 | CCOC/C(=N\OCc1c(Cl)cccc1/C(=N\OC)C(=O)OC)c1ccc(F)cc1 [compound 24] | 83
24 | CO/C=C(/C(=O)OC)c1cccc(Cl)c1CO/N=C(\COC)c1cccc(C)c1 [compound 128] | 20
25 | CO/C=C(/C(=O)OC)c1cccc(F)c1CO/N=C(\COC)c1c(F)cc(F)cc1F [compound 125] | 68

same assay, conditions: 16 ppm, % diseased leaf area

Row | SMILES | % PUCCRT Disease level K4 at 16 ppm [%]
26 | CCOC/C(=N\OCc1c(Cl)cccc1/C(=N\OC)C(=O)NC)c1ccccc1Cl [compound 51] | 68
27 | CCOC/C(=N\OCc1c(Cl)cccc1/C(=N\OC)C(=O)OC)c1cccc(F)c1 [compound 26] | 82
28 | CCOC/C(=N\OCc1c(Cl)cccc1/C(=N\OC)C(=O)OC)c1ccc(F)cc1 [compound 24] | 82
29 | CO/C=C(/C(=O)OC)c1cccc(Cl)c1CO/N=C(\COC)c1cccc(C)c1 [compound 128] | 1
30 | CO/C=C(/C(=O)OC)c1cccc(F)c1CO/N=C(\COC)c1c(F)cc(F)cc1F [compound 125] | 7

system: Puccinia recondita; experiment: Use Example 4: preventative control of brown rust on wheat (PUCCRT P7); type: in vivo; conditions: inoculated seven days after spraying, 4 ppm, % diseased leaf area
Procedure: as §1
Use Example 4. Preventative Control of Brown Rust on Wheat Caused by Puccinia recondita (PUCCRT P7)
The first two developed leaves of potted wheat seedling were sprayed to run-off with previously described spray solution, containing the concentration of active ingredient or their mixture as described below. Seven days later the plants were dusted with spores of Puccinia recondita. To ensure the success of the artificial inoculation, the plants were transferred to a humid chamber without light and a relative humidity of 95 to 99% and 20 to 24° C. for 24 h. Then the trial plants were cultivated for 9 to 11 days in a greenhouse chamber at 20 to 24° C. and a relative humidity between 65 and 70%. The extent of fungal attack on the leaves was visually assessed as % diseased leaf area, the disease level of untreated controls was usually between 80 and 100%.

Row | SMILES | % PUCCRT Disease level P7 at 4 ppm [%]
31 | CCOC/C(=N\OCc1c(Cl)cccc1/C(=N\OC)C(=O)NC)c1ccccc1Cl [compound 51] | 75
32 | CCOC/C(=N\OCc1c(Cl)cccc1/C(=N\OC)C(=O)OC)c1cccc(F)c1 [compound 26] | 62
33 | CCOC/C(=N\OCc1c(Cl)cccc1/C(=N\OC)C(=O)OC)c1ccc(F)cc1 [compound 24] | 68
34 | COC/C(=N\OCc1c(Cl)cccc1/C(=N\OC)C(=O)OC)c1c(F)ccc(F)c1F [compound 111] | 30
35 | COC/C(=N\OCc1c(Cl)cccc1/C(=N\OC)C(=O)OC)c1ccc(F)c(F)c1F [compound 98] | 50
36 | COC/C(=N\OCc1c(Cl)cccc1/C(=N\OC)C(=O)OC)c1cccc(OC)c1 [compound 120] | 22
37 | COC/C(=N\OCc1c(Cl)cccc1/C(=N\OC)C(=O)OC)c1ccc(Cl)c(Cl)c1 [compound 68] | 40

same assay, conditions: inoculated seven days after spraying, 16 ppm, % diseased leaf area

Row | SMILES | % PUCCRT Disease level P7 at 16 ppm [%]
38 | CCOC/C(=N\OCc1c(Cl)cccc1/C(=N\OC)C(=O)NC)c1ccccc1Cl [compound 51] | 53
39 | CCOC/C(=N\OCc1c(Cl)cccc1/C(=N\OC)C(=O)OC)c1cccc(F)c1 [compound 26] | 21
40 | CCOC/C(=N\OCc1c(Cl)cccc1/C(=N\OC)C(=O)OC)c1ccc(F)cc1 [compound 24] | 48
41 | COC/C(=N\OCc1c(Cl)cccc1/C(=N\OC)C(=O)OC)c1c(F)ccc(F)c1F [compound 111] | 17
42 | COC/C(=N\OCc1c(Cl)cccc1/C(=N\OC)C(=O)OC)c1ccc(F)c(F)c1F [compound 98] | 12
43 | COC/C(=N\OCc1c(Cl)cccc1/C(=N\OC)C(=O)OC)c1cccc(OC)c1 [compound 120] | 2
44 | COC/C(=N\OCc1c(Cl)cccc1/C(=N\OC)C(=O)OC)c1ccc(Cl)c(Cl)c1 [compound 68] | 12

Reference: US20260165323A1, “USE OF STROBILURIN TYPE COMPOUNDS FOR COMBATING PHYTOPATHOGENIC FUNGI CONTAINING AN AMINO ACID SUBSTITUTION F129L IN THE MITOCHONDRIAL CYTOCHROME B PROTEIN CONFERRING RESISTANCE TO QO […]” (priority 2022, published 2026)
